Values after ≈ are worked out from the molar mass of the structure shown.
Experiments:
[1] = molecular target: CYP2C9 (Homo sapiens, UniProt P11712); assay: Inhibition of CYP2C9 at 3 uM; assay type: ADME
[2] = molecular target: T1, P-selectin glycoprotein ligand 1 (Homo sapiens) (UniProt Q14242); assay: Inhibition of recombinant PSGL-1 at 250 uM by surface plasmon resonance assay
T1 sequence (whole entry): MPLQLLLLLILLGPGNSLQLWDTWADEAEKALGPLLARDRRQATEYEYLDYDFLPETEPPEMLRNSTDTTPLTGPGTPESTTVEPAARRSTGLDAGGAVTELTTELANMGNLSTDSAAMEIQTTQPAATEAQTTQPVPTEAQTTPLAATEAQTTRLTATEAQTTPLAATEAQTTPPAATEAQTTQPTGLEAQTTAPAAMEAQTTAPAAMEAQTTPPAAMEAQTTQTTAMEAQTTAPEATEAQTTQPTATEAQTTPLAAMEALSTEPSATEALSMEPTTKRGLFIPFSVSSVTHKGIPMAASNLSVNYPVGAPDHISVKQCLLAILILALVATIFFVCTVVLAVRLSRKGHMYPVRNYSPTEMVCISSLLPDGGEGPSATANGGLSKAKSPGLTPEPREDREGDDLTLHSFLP

[3] = Aqueous solubility of the compound at pH 6.6; assay type: physicochemical; conditions: aqueous solution
[4] = Clearance in Sprague-Dawley rat at 3 mg/kg, iv and 10 mg/kg, po; assay type: ADME, organism-based; conditions: in vivo
[5] = Oral bioavailability in Sprague-Dawley rat at 10 mg/kg; assay type: ADME, organism-based; conditions: in vivo
[6] = system: Rattus norvegicus; assay: Dose normalized AUC in Sprague-Dawley rat measured per mg of plasma at 3 mg/kg, iv and 10 mg/kg, po; assay type: ADME, organism-based; conditions: in vivo
[7] = molecular target: T2, P-selectin glycoprotein ligand 1 (Homo sapiens, UniProt Q14242); assay: Inhibition of recombinant PSGL-1 by surface plasmon resonance assay
T2 sequence (Q14242 whole entry): T1 sequence (whole entry)

CYP2C9, sequence (P11712 whole entry): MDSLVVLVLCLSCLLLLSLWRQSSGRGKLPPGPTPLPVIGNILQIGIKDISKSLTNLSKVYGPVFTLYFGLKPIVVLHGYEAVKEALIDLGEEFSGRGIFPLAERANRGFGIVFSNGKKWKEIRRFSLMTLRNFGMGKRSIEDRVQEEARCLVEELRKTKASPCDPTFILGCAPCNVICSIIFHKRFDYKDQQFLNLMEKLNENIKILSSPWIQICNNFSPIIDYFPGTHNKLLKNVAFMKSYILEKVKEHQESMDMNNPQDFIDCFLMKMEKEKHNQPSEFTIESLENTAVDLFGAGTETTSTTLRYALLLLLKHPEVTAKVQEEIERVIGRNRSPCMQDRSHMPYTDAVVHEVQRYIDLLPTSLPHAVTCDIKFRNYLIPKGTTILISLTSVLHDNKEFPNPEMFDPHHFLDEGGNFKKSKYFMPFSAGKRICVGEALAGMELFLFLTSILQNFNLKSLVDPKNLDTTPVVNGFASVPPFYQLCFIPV

| Structure (SMILES) | inhibition at 3 µM [1] [%] | inhibition [2] [%] | solubility [3] [µg/mL] | further results |
| --- | --- | --- | --- | --- |
| CCc1cc(C(F)(F)F)c2nc(C3(c4ccccc4)CC3)c(O)c(C(=O)O)c2c1 | 86 | 40 |  |  |
| Cc1ccc(C2(c3nc4c(C)cc(C)cc4c(C(=O)O)c3O)CC2)cc1 | 55 | 11 |  |  |
| CC(c1ccccc1)c1nc2c(C(F)(F)F)cccc2c(C(=O)O)c1O (stereo not drawn) |  | 50 | 1550 (≈ 4.29 mM) |  |
| O=C(O)c1c(O)c(C2Cc3ccccc32)nc2c(C(F)(F)F)cccc12 (stereo not drawn) |  | 45 | 800 (≈ 2.23 mM) |  |
| O=C(O)c1c(O)c(Cc2ccc(Cl)cc2)nc2c(C(F)(F)F)cccc12 |  | 40 | 440 (≈ 1.15 mM) |  |
| Cc1cc(C)c2nc(C3(c4ccc(Cl)cc4)CC3)c(O)c(C(=O)O)c2c1 | 17 | 47 |  |  |
| CCc1cc(C(F)(F)F)cc2c(C(=O)O)c(O)c(C3(c4ccc(Cl)cc4)CC3)nc12 | 43 | < 10 |  |  |
| O=C(O)c1c(O)c(C2Cc3ccccc3C2)nc2c(C(F)(F)F)cccc12 |  | 35 | 700 (≈ 1.88 mM) | clearance [4]: 28 mL/min/kg; bioavailability [5]: 49%; AUC [6]: 340 ng·h/mL |
| CC(C)(c1ccccc1)c1nc2c(C(F)(F)F)cccc2c(C(=O)O)c1O |  | 59 | 2810 (≈ 7.49 mM) | clearance [4]: 3.7 mL/min/kg; bioavailability [5]: 93%; AUC [6]: 1472 ng·h/mL |
| Cc1cc(C(F)(F)F)cc2c(C(=O)O)c(O)c(C3(c4ccc(Cl)cc4)CC3)nc12 | 42 | 40 |  |  |
| CC(=O)N[C@H]1[C@H]([C@H](O)[C@H](O)CO)O[C@@](O[C@H]2[C@@H](O)[C@@H](CO)O[C@@H](O[C@@H]([C@H](O[C@@H]3O[C@@H](C)[C@@H](O)[C@@H](O)[C@@H]3O)[C@H](C=O)NC(C)=O)[C@H](O)CO)[C@@H]2O)(C(=O)O)C[C@@H]1O [SIALYL LEWIS X] |  |  |  | IC50 [7]: 15 mM |

Second part, led by results:

| inhibition at 3 µM [1] [%] | inhibition [2] [%] | solubility [3] [µg/mL] | Structure (SMILES) | further results |
| --- | --- | --- | --- | --- |
| 87 | 40 |  | Cc1cc(C(F)(F)F)c2nc(C3(c4ccccc4)CC3)c(O)c(C(=O)O)c2c1 |  |
|  | 7 |  | O=C(O)c1c(O)c(C2(c3ccsc3)CC2)nc2c(C(F)(F)F)cccc12 |  |
| 81 | < 10 |  | CCc1cc(C(F)(F)F)c2nc(C3(c4ccc(Cl)cc4)CC3)c(O)c(C(=O)O)c2c1 |  |
|  | 66 | 300 (≈ 0.736 mM) | O=C(O)c1c(O)c(C2(c3cccc(Cl)c3)CC2)nc2c(C(F)(F)F)cccc12 |  |
|  | 26 |  | COc1ccc(C2(c3nc4c(C(F)(F)F)cccc4c(C(=O)O)c3O)CC2)cc1 |  |
|  | 44 | 2100 (≈ 5.63 mM) | O=C(O)c1c(O)c(C2(c3ccccc3)CC2)nc2c(C(F)(F)F)cccc12 |  |
|  |  | 2500 (≈ 6.84 mM) | CC(C)c1cccc2c(C(=O)O)c(O)c(C3(c4ccc(F)cc4)CC3)nc12 | clearance [4]: 8.7 mL/min/kg; bioavailability [5]: 65%; AUC [6]: 1263 ng·h/mL |
|  | 29 |  | O=C(O)c1c(O)c(C2(c3ccc(OC(F)(F)F)cc3)CC2)nc2c(C(F)(F)F)cccc12 |  |
|  | 64 | 420 (≈ 0.929 mM) | O=C(O)c1c(O)c(C2(c3ccc(Br)cc3)CC2)nc2c(C(F)(F)F)cccc12 |  |
| 72 | 65 |  | Cc1cc(C(F)(F)F)c2nc(C3(c4ccc(Cl)cc4)CC3)c(O)c(C(=O)O)c2c1 |  |
|  | 56 | 2900 (≈ 7.41 mM) | O=C(O)c1c(O)c(C2(c3ccc(F)cc3)CC2)nc2c(C(F)(F)F)cccc12 | clearance [4]: 0.5 mL/min/kg; bioavailability [5]: 39%; AUC [6]: 14282 ng·h/mL |
| 65 | < 10 |  | O=C(O)c1c(O)c(C2(c3ccc(Cl)cc3)CC2)nc2c(C(F)(F)F)cc(Br)cc12 |  |

Reference: ChEMBL document CHEMBL1212936, “Discovery of 2-[1-(4-chlorophenyl)cyclopropyl]-3-hydroxy-8-(trifluoromethyl)quinoline-4-carboxylic acid (PSI-421), a P-selectin inhibitor with improved pharmacokinetic properties and oral efficacy in models of vascular injury” (J Med Chem, 2010)
